# Values joined by “and” are separate entries in the source; they are usually repeats but may differ in a detail not shown here. Identical values can stand only once. “Also recorded” adds a separate entry of the source. Like-named read-outs stand apart in the source and are kept apart here.
# Key:
# GlyT2 [1] = details: cited from earlier work; for pIC50 (literature; calcd): calcd from literature IC50; for IC50: read-out: Biological activity, IC50 (literature)
# hGlyT2 = molecular target: T1, hGlyT2 (Homo sapiens, UniProt Q9Y345); experiment: GlyT2 MS Binding Assays: competition experiments with Org25543 as reporter ligand; details: for affinity / inhibition of Org25543 binding, in words: up to highest concentration (sarcosine, L-serine, DL-leucine mM; Org24598 300 μM; LY2365109 10 μM; ALX5407 600 μM); for completeness of displacement of Org25543 from GlyT2, in words: up to the highest concentration investigated (glycine 1 M)
# T1 construct: host or cells: HEK293 cells stably expressing hGlyT2; crude membrane fractions
# T1 sequence (Q9Y345 1-797): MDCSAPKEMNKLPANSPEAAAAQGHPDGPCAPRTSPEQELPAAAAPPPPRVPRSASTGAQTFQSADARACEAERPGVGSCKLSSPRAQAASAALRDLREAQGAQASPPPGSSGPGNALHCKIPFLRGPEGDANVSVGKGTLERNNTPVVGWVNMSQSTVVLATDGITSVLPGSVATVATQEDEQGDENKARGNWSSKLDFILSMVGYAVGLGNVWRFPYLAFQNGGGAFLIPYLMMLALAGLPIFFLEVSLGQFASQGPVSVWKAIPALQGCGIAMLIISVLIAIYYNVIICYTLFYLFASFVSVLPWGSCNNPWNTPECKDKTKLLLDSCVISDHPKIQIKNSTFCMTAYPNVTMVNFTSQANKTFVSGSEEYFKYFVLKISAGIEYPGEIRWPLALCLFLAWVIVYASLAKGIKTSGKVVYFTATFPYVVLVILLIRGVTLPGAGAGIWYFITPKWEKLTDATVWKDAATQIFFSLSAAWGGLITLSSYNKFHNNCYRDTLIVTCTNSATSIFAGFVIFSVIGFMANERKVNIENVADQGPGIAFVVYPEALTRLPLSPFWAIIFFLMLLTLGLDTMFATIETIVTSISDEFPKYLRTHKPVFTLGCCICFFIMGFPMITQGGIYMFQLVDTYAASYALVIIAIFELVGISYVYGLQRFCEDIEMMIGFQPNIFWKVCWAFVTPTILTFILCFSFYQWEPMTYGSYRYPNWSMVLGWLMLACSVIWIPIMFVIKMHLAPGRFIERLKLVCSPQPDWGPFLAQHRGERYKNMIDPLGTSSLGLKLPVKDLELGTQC
# Protocol: For the development of the desired competitive MS Binding Assay, the general concept of this kind of binding experiments was followed, in which the affinity of a test compound is delineated from its potency to compete out a reporter ligand, in our case Org25543, from its target binding site. Accordingly, the target protein was incubated with a defined concentration of the reporter ligand and increasing concentration of the individual test compound. In detail, the competitors were studied at seven different concentration levels, which covered about three concentration log units, whereas the concentration of Org25543 was fixed to 10 nM. Thereafter, via the developed LC‐ESI‐MS/MS method the amount of bound marker (total binding) was determined for the samples obtained from the individual incubation mixtures by the common workup for MS Binding Assays. Nonspecific binding was again determined in a set of analogous experiments in which GlyT2 membrane fractions were replaced by material subjected to a heat‐shock before. The resulting amount of Org25543 binding was defined as 0 % level of specific reporter ligand binding. […] The thus determined IC50 values were finally used to calculate the corresponding K i values by means of the Cheng‐Prusoff equation.
# For preparation of GlyT2 membrane preparations HEK293 cells, stably expressing the hGlyT2 with a confluence ≥90 %, were used (kindly provided by AbbVie (Wiesbaden, Germany)). As cell culture medium DMEM containing 10 % fetal bovine serum (m/v), 100 U mL^−1 penicillin, 100 μg mL^−1 streptomycin and […] hygromycin B was used and the cells were cultivated in dishes (143 cm^2) at 37 °C and 8 % CO2. The cells were detached from the dish by aspirating the medium, adding 12 mL cell culture medium without hygromycin B and pipetting the medium several times until the cell lawn was completely detached. Subsequently, the cells were washed twice with PBS (5 min, 1600 rpm, Biofuge Stratos, rotor: #3047, Heraeus, Hanau, Germany) and afterwards homogenized in incubation buffer (10 mM HEPES, 120 mM NaCl, 2 mM KCl, 1 mM MgCl2, 1 mM CaCl2, pH 7.5) using a Polytron PTA 10 S (Kinematica Polytron, Littau‐Luzern, Switzerland). After homogenization aliquots of about 1 mg protein were frozen and stored at −80 °C. To determine the amount of protein in the membrane preparation (after treatment with 100 mM NaOH for 1 h) the protein determination according to Bradford ^[63] was applied, using bovine serum albumin as standard for calibration. At the day of the assay the membrane preparation was rapidly thawed, diluted in 20 mL incubation buffer and centrifuged at 4 °C for 20 min at 20 500 rpm (Sorvall Evolution RC, rotor: SS34, Thermo. Electron, Hanau, Germany). Finally, the resulting pellet was resuspended in 6 mL incubation buffer yielding a protein concentration of ∼0.1–0.2 mg mL^−1.
# In polypropylene 96‐well plates (1.2 mL well volume, Sarstedt) membrane preparations (∼5–10 μg protein) were incubated in the presence of the reporter ligand and, if required, test compounds in incubation buffer (10 mM HEPES, 120 mM NaCl, 2 mM KCl, 1 mM MgCl2, 1 mM CaCl2, pH 7.5) in a total volume of 250 μL at 37 °C in a Julabo SW‐20 C water bath (Julabo GmbH, Seelbach, Germany) for 1 h (every sample was prepared in triplicates). After the incubation 210 μL aliquots of the binding samples were transferred by means of a 12‐channel pipette onto 96‐well glass fiber filter plates (AcroPrep Advance, glass fiber, 1.0 μm, 350 μL; Pall Corporation, Port Washington, NY, USA) where the incubation was terminated by vacuum filtration (the samples were transferred and the incubation was terminated row after row; Multi Well Plate Vacuum Manifold, Pall, Dreieich, Germany).
# GlyT2 [2] = details: cited from earlier work
# [3] = ref 61; cited from earlier work
# [4] = read-out: Affinity, pKi (GlyT2 MS Binding Assays) (converted)
# [5] = compound 600 μM, Org25543 10 nM
smiles,measurement,setting,value
"CC(C)c1nnc(-c2ccc(-c3ccccc3)nc2)n1-c1cccc2nonc12 [ASP2535, 4‐[3‐(1‐methylethyl)‐5‐(6‐phenyl‐3‐pyridinyl)‐4H‐1,2,4‐triazol‐4‐yl]‐2,1,3‐benzoxadiazole]",pIC50 (literature; calcd),GlyT2 [1]; ref 56,5.34
same,IC50,GlyT2 [1]; ref 56,4.6 ± 0.29 µM
same,Ki,hGlyT2; [4],1.02 µM
CC(C)CC(N)C(=O)O (racemic) [DL‐leucine],remaining Org25543 binding (% of specific binding) at the highest compound concentration,"hGlyT2; compound 10 mM, Org25543 10 nM",99±3%
same,Ki,hGlyT2; [4],> 4270 µM
same,"affinity / inhibition of Org25543 binding, in words",hGlyT2,no inhibition of Org25543 binding to more than 50%
COC(=O)CN [glycine methyl ester],Glycine uptake in presence of 1 mM competitor (% of control),GlyT2 [1],"84±5 %^[47],[c]"
same,Ki,hGlyT2; [4],77600 µM
N[C@@H](CO)C(=O)O [L‐serine],Glycine uptake in presence of 1 mM competitor (% of control),GlyT2 [1],"89±7 %^[47],[c]"
same,remaining Org25543 binding (% of specific binding) at the highest compound concentration,"hGlyT2; compound 180 mM, Org25543 10 nM",97±4%
same,Ki,hGlyT2; [4],> 77600 µM
same,"affinity / inhibition of Org25543 binding, in words",hGlyT2,no inhibition of Org25543 binding to more than 50%
CN(C)CCCN1c2ccccc2Sc2ccc(Cl)cc21 [chlorpromazine],pIC50 (literature; calcd),GlyT2 [1]; ref 58,4.68
same,IC50,GlyT2 [1]; ref 58,21 ± 4 µM
same,Ki,hGlyT2; [4],28.2 µM
"CN(CCC(Oc1ccc(C(=O)c2nccs2)cc1)c1ccc(Cl)cc1)CC(=O)O (stereo not drawn) [CP‐802,079, N‐[3‐(4‐chlorophenyl)‐3‐[4‐(2‐thiazolylcarbonyl)phenoxy]propyl]‐N‐methyl‐glycine]",pIC50 (literature; calcd),GlyT2 [1]; ref 55,<5
same,IC50,GlyT2 [1]; ref 55,> 10 µM
same,Ki,hGlyT2; [4],22.9 µM
NCC(=O)O [glycine],EC50,"GlyT2 [1]; K m and EC50 values, read-out: Biological activity (literature): K m and EC50 values",6 to 1800 µM
same,"Affinity, pKi (GlyT2 MS Binding Assays)","hGlyT2; Org25543 10 nM, 37 °C, 1 h, mean±SEM, n=3–5, bounds in brackets where less than 50 % inhibition",1.98±0.08
same,Ki,"hGlyT2; approximate value, read-out: Ki at GlyT2 in competition experiments",~10000 µM
same,"completeness of displacement of Org25543 from GlyT2, in words",hGlyT2,not able to displace Org25543 completely; also recorded: cannot completely displace Org25543
"CN(CCOc1ccc(-c2ccc3c(c2)OCO3)cc1C(C)(C)C)CC(=O)O [LY2365109, N‐[2‐[4‐(1,3‐benzodioxol‐5‐yl)‐2‐(1,1‐dimethylethyl)‐phenoxy]ethyl]‐N‐methylglycine]",pIC50 (literature; calcd),GlyT2 [1]; ref 57,<4.52
same,IC50,GlyT2 [1]; ref 57,> 30 µM
same,remaining Org25543 binding (% of specific binding) at the highest compound concentration,"hGlyT2; compound 10 μM, Org25543 10 nM",94±10%
same,Ki,hGlyT2; [4],> 4.27 µM
same,"affinity / inhibition of Org25543 binding, in words",hGlyT2,hardly any affinity
"O=C(O)CCCCSc1ncnc2[nH]c(O)nc12 [ZINC6865169, 5‐((8‐hydroxy‐9H‐purin‐6‐yl)thio)pentanoic acid]",pIC50 (literature; calcd),GlyT2 [1]; ref 40,6.29
same,IC50,GlyT2 [1]; ref 40,0.518 ± 0.066 µM
same,IC50,hGlyT2,> 600 µM
same,remaining Org25543 binding (% of specific binding) at the highest compound concentration,hGlyT2; [5],77% and 77±6%
same,Ki,hGlyT2; [4],> 257 µM
same,IC50,"GlyT2 [2]; ref 40, read-out: IC50 in glycine uptake studies",0.518 µM
COc1cc(C(=O)NCC2(N(C)C)CCCCC2)cc(OC)c1OCc1ccccc1 [compound 8],pIC50 (literature; calcd),GlyT2 [1]; ref 23,7.08
same,IC50,GlyT2 [1]; ref 23,0.084 ± 0.003 µM
same,Ki,hGlyT2; [4],0.0417 µM
same,IC50,"GlyT2 [2]; ref 23, read-out: IC50 in [3H]glycine uptake assay",0.084 µM
O=C(O)C1CCCN1 (racemic) [DL‐proline],Glycine uptake in presence of 1 mM competitor (% of control),GlyT2 [1],"95±5 %^[47],[c]"
same,Ki,hGlyT2; [4],31600 µM
same,"completeness of displacement of Org25543 from GlyT2, in words",hGlyT2,not able to displace Org25543 completely
"CCCCC/C=C\C/C=C\C/C=C\C/C=C\CCCC(=O)NCC(=O)O [N‐arachidonylglycine, N‐(1‐oxo‐(5Z,8Z,11Z,14Z)‐eicosatetraenyl)glycine]",pIC50 (literature; calcd),GlyT2 [1]; ref 52,5.29
same,IC50,GlyT2 [1]; ref 52,5.1 ± 3.1 µM
same,Ki,hGlyT2,3.98 µM
same,critical micelle concentration (CMC),[3],> 100 µM
"CN(CC[C@@H](Oc1ccc(C(F)(F)F)cc1)c1ccccc1)CC(=O)O [Org24598, N‐methyl‐N‐[(3R)‐3‐phenyl‐3‐[4‐(trifluoromethyl)phenoxy]propyl]glycine]",pIC50 (literature; calcd),GlyT2 [1]; ref 53,<4
same,IC50,GlyT2 [1]; ref 53,> 100 µM
same,remaining Org25543 binding (% of specific binding) at the highest compound concentration,"hGlyT2; compound 300 μM, Org25543 10 nM",101±5%
same,Ki,hGlyT2; [4],> 129 µM
same,"affinity / inhibition of Org25543 binding, in words",hGlyT2,hardly any affinity
"CN(CC[C@@H](Oc1ccc(-c2ccccc2)cc1)c1ccc(F)cc1)CC(=O)O [ALX5407, N‐[(3R)‐3‐([1,1′‐biphenyl]‐4‐yloxy)‐3‐(4‐fluorophenyl)propyl]‐N‐methylglycine]",pIC50 (literature; calcd),GlyT2 [1]; ref 40,5.74
same,pIC50 (literature; calcd),GlyT2 [1]; ref 54,< 4
same,IC50,GlyT2 [1]; ref 40,1.8 µM
same,IC50,GlyT2 [1]; ref 54,> 100 µM
same,IC50,hGlyT2,> 600 µM
same,remaining Org25543 binding (% of specific binding) at the highest compound concentration,hGlyT2; [5],90±5%
same,Ki,hGlyT2; [4],> 257 µM
same,"affinity / inhibition of Org25543 binding, in words",hGlyT2,hardly a reduction of Org25543 binding
CNCC(=O)O [sarcosine],pIC50 (literature; calcd),GlyT2 [1]; ref 22,<3
same,IC50,GlyT2 [1]; ref 22,> 1000 µM
same,remaining Org25543 binding (% of specific binding) at the highest compound concentration,"hGlyT2; compound 2.2 mM, Org25543 10 nM",98±6%
same,Ki,hGlyT2; [4],> 933 µM
same,"affinity / inhibition of Org25543 binding, in words",hGlyT2,no inhibition of Org25543 binding to more than 50%
"CCCCCCCC/C=C\CCCCCCCC(=O)NCC(=O)O [N‐oleoylglycine, N‐(1‐oxo‐9‐octadecenyl)‐(Z)‐glycine]",pIC50 (literature; calcd),GlyT2 [1]; ref 19,6.30
same,IC50,GlyT2 [1]; ref 19,0.5 µM
same,Ki,hGlyT2; [4],2.34 µM
same,"completeness of displacement of Org25543 from GlyT2, in words",hGlyT2,not able to displace Org25543 completely
